The nature of series [1]: Retention time of the compound by HPLC analysis. It is filed as physicochemical.
Series [2] can be described thus: Chemical stability of the compound in phosphate buffer assessed as half life at pH 7.3 by HPLC analysis. It is filed as physicochemical.
Series [3] is described as follows: Prodrug conversion in pH 7.3 phosphate buffer assessed as ((2S,5R)-5-(5-methyl-2,4-dioxo-3,4-dihydropyrimidin-1(2H)-yl)-2,5-dihydrofuran-2-yl)methyl tri-hydrogen diphosphate formation by measuring half life in presence of pig liver esterase by HPLC analysis. It is filed as ADME.
The nature of series [4]: Prodrug conversion in human CEM/0 cell extract assessed as metabolite formation by measuring half life by HPLC analysis. The note with it: ccrf-cem. The class given is ADME.
A short description of series [5]: Prodrug conversion in human CEM/0 cell extract assessed as ((2S,5R)-5-(5-methyl-2,4-dioxo-3,4-dihydropyrimidin-1(2H)-yl)-2,5-dihydrofuran-2-yl)methyl tri-hydrogen diphosphate formation by HPLC analysis. It is filed as ADME. The note with it: ccrf-cem.
Series [6] is described as follows: Prodrug conversion in human CEM/0 cell extract assessed as ((2S,5R)-5-(5-methyl-2,4-dioxo-3,4-dihydropyrimidin-1(2H)-yl)-2,5-dihydrofuran-2-yl)methyl dihydrogen phosphate formation by HPLC analysis. The class given is ADME. The note with it: ccrf-cem.
In series [7] the test system is Human immunodeficiency virus 1. Briefly: Antiviral activity against HIV-1 HE infected in wild-type human CEM/0 cells assessed as inhibition of virus-induced cytopathic effect incubated for 4 to 5 days by light microscopic analysis. It is filed as functional, organism-based. The note with it: Human immunodeficiency virus 1, HE, CCRF-CEM.
For series [8], the system named is Human immunodeficiency virus 2. Briefly: Antiviral activity against HIV-2 ROD infected in wild-type human CEM/0 cells assessed as inhibition of virus-induced cytopathic effect incubated for 4 to 5 days by light microscopic analysis. It is filed as functional, organism-based. The note with it: Human immunodeficiency virus 2, ROD, CCRF-CEM.
In series [9] the test system is Human immunodeficiency virus 2. Briefly: Antiviral activity against HIV-2 ROD infected in thymidine kinase-deficient human CEM cells assessed as inhibition of virus-induced cytopathic effect incubated for 4 to 5 days by light microscopic analysis. It is filed as functional, organism-based. The settings on record: Human immunodeficiency virus 2, ROD, CCRF-CEM.
Series [10] can be described thus: Cytotoxicity against human CEM cells assessed as reduction in cell viability incubated for 4 to 5 days by light microscopic analysis. The class given is toxicity, cell-based. The settings on record: CEM cells (CCRF-CEM), time 4-5 day.
A short description of series [11]: Selectivity index, ratio of CC50 for human CEM cells to EC50 for HIV-2 ROD infected in thymidine kinase-deficient human CEM cells. The class given is toxicity. The note with it: read-out: Ratio CC50/EC50.
Series [12] relates to Human immunodeficiency virus. Put plainly: Substrate activity at HIV reverse transcriptase measured after 4 hrs by electrophoresis based primer extension assay.
Series [13] deals with T1, DNA polymerase alpha catalytic subunit (Homo sapiens) (UniProt P09884).
T1 sequence (whole entry): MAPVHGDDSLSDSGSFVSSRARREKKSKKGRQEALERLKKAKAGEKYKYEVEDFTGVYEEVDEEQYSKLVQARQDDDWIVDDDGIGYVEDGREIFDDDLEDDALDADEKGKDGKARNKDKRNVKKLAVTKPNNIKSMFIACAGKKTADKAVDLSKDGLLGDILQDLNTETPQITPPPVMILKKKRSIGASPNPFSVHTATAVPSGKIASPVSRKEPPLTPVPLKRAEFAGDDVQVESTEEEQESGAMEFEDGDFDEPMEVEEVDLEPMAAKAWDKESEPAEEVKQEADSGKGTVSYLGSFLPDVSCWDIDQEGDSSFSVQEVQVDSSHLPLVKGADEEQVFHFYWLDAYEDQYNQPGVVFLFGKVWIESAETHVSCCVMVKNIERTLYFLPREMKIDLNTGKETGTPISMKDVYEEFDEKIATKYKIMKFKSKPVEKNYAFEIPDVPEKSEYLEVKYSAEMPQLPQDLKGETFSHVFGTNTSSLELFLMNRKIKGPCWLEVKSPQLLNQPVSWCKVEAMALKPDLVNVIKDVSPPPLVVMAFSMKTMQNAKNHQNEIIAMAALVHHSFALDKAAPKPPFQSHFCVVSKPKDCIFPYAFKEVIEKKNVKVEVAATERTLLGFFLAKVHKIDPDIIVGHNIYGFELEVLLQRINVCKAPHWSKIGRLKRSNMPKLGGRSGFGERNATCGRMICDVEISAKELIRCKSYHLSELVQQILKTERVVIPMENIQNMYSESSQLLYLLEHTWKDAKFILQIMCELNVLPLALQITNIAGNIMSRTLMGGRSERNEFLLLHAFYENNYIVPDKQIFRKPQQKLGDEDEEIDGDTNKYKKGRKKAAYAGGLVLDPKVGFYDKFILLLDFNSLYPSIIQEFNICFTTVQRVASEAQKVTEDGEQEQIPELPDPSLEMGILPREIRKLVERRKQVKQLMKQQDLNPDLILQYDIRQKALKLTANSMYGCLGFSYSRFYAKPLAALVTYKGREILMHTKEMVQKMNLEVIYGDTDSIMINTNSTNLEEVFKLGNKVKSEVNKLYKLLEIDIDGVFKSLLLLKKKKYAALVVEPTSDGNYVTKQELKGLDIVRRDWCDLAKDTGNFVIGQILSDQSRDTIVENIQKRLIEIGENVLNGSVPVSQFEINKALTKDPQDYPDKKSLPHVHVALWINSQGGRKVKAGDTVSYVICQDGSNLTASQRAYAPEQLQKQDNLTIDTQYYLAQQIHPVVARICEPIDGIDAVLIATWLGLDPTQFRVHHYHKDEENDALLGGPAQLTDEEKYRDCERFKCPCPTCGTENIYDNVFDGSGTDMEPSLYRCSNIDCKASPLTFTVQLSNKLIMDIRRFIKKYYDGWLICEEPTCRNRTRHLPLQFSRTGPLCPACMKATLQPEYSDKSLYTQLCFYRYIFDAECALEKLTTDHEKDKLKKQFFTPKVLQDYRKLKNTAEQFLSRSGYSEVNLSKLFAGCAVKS
Put plainly: Substrate activity at human DNA polymerase alpha measured after 4 hrs by electrophoresis based primer extension assay.

Series [14] has as its target DNA polymerase beta (Homo sapiens) (UniProt P06746). Put plainly: Substrate activity at human DNA polymerase beta measured after 4 hrs by electrophoresis based primer extension assay.
For series [15], the system named is Human immunodeficiency virus 1. Briefly: Potency index, ratio of 3'-deoxy-2',3'-dehydrothymidine EC50 to compound EC50 for antiviral activity against HIV-1 HE infected in wild-type human CEM/0 cells. The class given is functional.
Series [16] has as its system Human immunodeficiency virus 2. Put plainly: Potency index, ratio of 3'-deoxy-2',3'-dehydrothymidine EC50 to compound EC50 for antiviral activity against HIV-2 ROD infected in wild-type human CEM/0 cells. The class given is functional.
The subject of series [17] is Human immunodeficiency virus 2. Briefly: Potency index, ratio of 3'-deoxy-2',3'-dehydrothymidine EC50 to compound EC50 for antiviral activity against HIV-2 ROD infected in thymidine kinase-deficient human CEM[…] cells. The class given is functional.

The source made the active and inactive calls. The calls are words filed in the database; no cut-off is given here.

In [1], `CCCCCCCCCCCCCCCCCCP(=O)(OC)OP(=O)(O)OP(=O)(O)OC[C@@H]1C=C[C@H](n2cc(C)c(=O)[nH]c2=O)O1.N.N` (some centres not stated) gave a Retention_time of 15.2 min. Besides, in [2], the half-life was 27.2 days. The results for the t1/2 in series [3] and in series [4] were above 6.25 days and above 0.625 days, respectively. Further, the Drug metabolism entry in [5] and in series [6] was “Metabolite_Detected” throughout. Also, the EC50 in series [7] came out at 0.051 µM; in [8] it was 0.08 µM; in series [9], 0.48 µM. In series [10], the cytotoxic concentration (CC50) is 40 µM. The selectivity ratio in series [11] came out at 83. Besides, in series [12], the result was Active. In addition, the result in [13] and in series [14] was inactive. In addition, the “Ratio EC50” value came to 4 in series [15], 4 in [16] and 10000 in [17].

The values are drawn from ChEMBL document CHEMBL5365447, “Pronucleotides of 2',3'-Dideoxy-2',3'-Didehydrothymidine as Potent Anti-HIV Compounds” (J Med Chem, 2023).
